{"source": "patent US20160338977A1", "about": "“METHODS AND KITS FOR TREATING DEPRESSION” (Janssen Pharmaceutica NV, priority 2015, published 2016)", "key": {"[1]": {"tested_on": "subjects with Treatment Resistant Depression (TRD)", "assay": "Treatment emergent adverse events (TEAE) in the subjects of Example 1", "text": "The treatment emergent adverse event (TEAE) side effects for the subjects of Example were obtained. See, Table 7."}, "[2]": {"tested_on": "subjects with Treatment Resistant Depression (TRD)", "assay": "Clinician Administered Dissociative States Scale (CADSS)", "format": "in vivo, human", "conditions": "post dose; intranasal", "experimental": "The Clinician Administered Dissociative States Scale (CADSS) was measured prior to the start of each dose, at 40 minutes and at 2 hours post dose. The CADSS is used to assess treatment emergent dissociative symptoms and perceptual changes and the total score ranges from 0 to 92 with a higher score representing a more severe condition. […] See, FIG. 4."}, "[3]": {"tested_on": "subjects with Treatment Resistant Depression (TRD)", "assay": "MADRS total score, double-blind placebo-controlled intranasal induction study", "format": "in vivo, human", "conditions": "for Mean Differences (SE) from placebo, MADRS total score: Day 8, data from both Periods 1 and 2; for Estimated Differences from placebo, MADRS total score: best fit sigmoidal Emax model; for Least Square Mean Difference from Placebo, MADRS total score: change from baseline to Day 8, ANCOVA LOCF", "text": "The subjects discussed in Examples 1 to 5 included adult men and women, 18 (or older if the minimum legal age of consent in the country in which the study is taking place is >18) to 64 years of age (inclusive), who meet diagnostic criteria for recurrent MDD or single-episode MDD, based upon clinical assessment.\nThis example was a 2-panel, doubly-randomized, double-blind, placebo-controlled, multicenter study. In both panels, each subject participated in a screening phase of up to 4 weeks and/or a double-blind treatment phase which includes two 1-week periods (Period 1 and Period 2).\nSixty-seven (67) subjects with Treatment Resistant Depression (TRD) were randomly assigned in a 3:1:1:1 ratio to 1 of the 4 treatment groups in Table 1.\nAll subjects self-administered the intranasal esketamine (28, 56, or 84 mg) or placebo on non-consecutive days. Each intranasal device contains 2 sprays and contain esketamine deliver 14 mg per spray, for a total of 28 mg per individual device (i.e., 2 sprays). […] Food was restricted for 8 hours before each administration of study drug and the drinking of fluids was restricted for at least 30 minutes before the first nasal spray.\nIn Period 2, 28 placebo subjects who were eligible for re-randomization at the end of Period 1 were randomly assigned to as noted in Table 1 in a 1:1:1:1 ratio. Subjects eligible for re-randomization had to have a QIDS-SR16 total score >11 at the end of Period 1. Central randomization was implemented in this study. Both randomizations were balanced using randomly permuted blocks and were stratified by study center. The randomization for Period 2 was also stratified by QIDS-SR16 score at the end of Period 1 (moderate=11-16; severe >16) Subjects who were randomly assigned to esketamine in Period 1 continued to receive esketamine in Period 2, while Period 1 placebo subjects with a QIDS-SR16 total score <11 continued with placebo in Period 2.\nThe Period 1 ITT analysis set consisted of all randomized subjects who received at least 1 dose of study medication during Period 1 and had both the baseline and at least one post baseline value for the primary endpoint measure, MADRS total score, within Period 1. The Period 2 ITT analysis set consisted of all Period 1 placebo subjects who were eligible for re-randomization (QIDS-SR16≧11 at end of Period 1), who actually got re-randomized into Period 2 and received at least 1 dose of study medication during Period 2, and had both the baseline and at least one post baseline MADRS total score within Period 2.\nThe MADRS consisted of 10 items that covered all of the core depressive symptoms (apparent sadness, reported sadness, inner tension, sleep, appetite, concentration, lassitude, interest level, pessimistic thoughts, and suicidal thoughts). Each item was scored from 0 (item is not present or is normal) to 6 (severe or continuous presence of the symptom). A total score (0 to 60) was calculated by summing the scores of all 10 items. A higher score represented a more severe condition. Sustained response (onset of clinical response) was defined as at least 50% improvement from baseline in the MADRS total score with an onset by Day 2 that was maintained to study Day 15. The primary efficacy endpoint was the change in MADRS total score from baseline to Day 8 in each period, with the analysis based on data combined across both periods. The primary efficacy analysis was performed on the intent-to-treat (ITT) analysis sets that were defined for each period, which included all randomized subjects who received at least 1 dose of study medication during that period and have both the baseline and at least one post baseline MADRS total score within that period. Significance was based on a one-sided alpha level of 0.05.\nA separate ANCOVA model was performed on last observation carried forward (LOCF) data for each period. Changes from baseline in Period 1 were modeled with treatment as a factor and Period 1 baseline value as a covariate. […]"}, "[4]": {"tested_on": "NMDA receptor", "conditions": "compared with the R-enantiomer (arketamine); cited from earlier work"}}, "data": [{"smiles": "CN[C@]1(c2ccccc2Cl)CCCCC1=O.Cl", "note": "[Esketamine, (S)-2-(2-chlorophenyl)-2-(methylamino)cyclohexanone hydrochloride]", "values": [{"measurement": "Patients Experiencing on TEAE", "setting": "[1]; Period 1, 28 mg intranasal", "value": 73}, {"measurement": "Patients Experiencing on TEAE", "setting": "[1]; Period 1, 56 mg intranasal", "value": 82}, {"measurement": "Patients Experiencing on TEAE", "setting": "[1]; Period 1, 84 mg intranasal", "value": 83}, {"measurement": "Patients Experiencing on TEAE", "setting": "[1]; Period 2, 28 mg intranasal", "value": 38}, {"measurement": "Patients Experiencing on TEAE", "setting": "[1]; Period 2, 56 mg intranasal", "value": 78}, {"measurement": "Patients Experiencing on TEAE", "setting": "[1]; Period 2, 84 mg intranasal", "value": 100}, {"measurement": "subjects who experienced at least one TEAE", "setting": "[1]; overall, esketamine in either Period 1 or Period 2", "value": "about 79%"}, {"measurement": "time of peak of dissociative and perceptual change symptoms (CADSS)", "setting": "[2]", "value": "≤ 40", "unit": "min"}, {"measurement": "time to resolution of dissociative and perceptual change symptoms (CADSS)", "setting": "[2]", "value": "≤ 2", "unit": "h"}, {"measurement": "statistical comparison with placebo, dose response model, MADRS total score", "setting": "[3]; 14 mg (model estimate, dose not studied), 90% CI included 0", "value": "not statistically different from placebo"}, {"measurement": "Mean Differences (SE) from placebo, MADRS total score", "setting": "[3]; 28 mg", "value": "−4.2 (2.09)"}, {"measurement": "Estimated Differences from placebo, MADRS total score", "setting": "[3]; 28 mg", "value": "−4.22"}, {"measurement": "statistical comparison with placebo, dose response model, MADRS total score", "setting": "[3]; 28 mg, sigmoidal Emax model, 90% CI", "value": "statistically superior to placebo"}, {"measurement": "Mean Differences (SE) from placebo, MADRS total score", "setting": "[3]; 56 mg", "value": "−6.3 (2.07)"}, {"measurement": "Estimated Differences from placebo, MADRS total score", "setting": "[3]; 56 mg", "value": "−7.04"}, {"measurement": "statistical comparison with placebo, dose response model, MADRS total score", "setting": "[3]; 56 mg, sigmoidal Emax model, 90% CI", "value": "statistically superior to placebo"}, {"measurement": "Mean Differences (SE) from placebo, MADRS total score", "setting": "[3]; 84 mg", "value": "−9.0 (2.13)"}, {"measurement": "Estimated Differences from placebo, MADRS total score", "setting": "[3]; 84 mg", "value": "−8.45"}, {"measurement": "statistical comparison with placebo, dose response model, MADRS total score", "setting": "[3]; 84 mg, sigmoidal Emax model, 90% CI", "value": "statistically superior to placebo"}, {"measurement": "Least Square Mean Difference from Placebo, MADRS total score", "setting": "[3]; Period 1, 28 mg intranasal", "value": "−5.0"}, {"measurement": "Least Square Mean Difference from Placebo, MADRS total score", "setting": "[3]; Period 1, 56 mg intranasal", "value": "−7.6"}, {"measurement": "Least Square Mean Difference from Placebo, MADRS total score", "setting": "[3]; Period 1, 84 mg intranasal", "value": "−10.5"}, {"measurement": "Least Square Mean Difference from Placebo, MADRS total score", "setting": "[3]; Period 2, 28 mg intranasal", "value": "−3.1"}, {"measurement": "Least Square Mean Difference from Placebo, MADRS total score", "setting": "[3]; Period 2, 56 mg intranasal", "value": "−4.4"}, {"measurement": "Least Square Mean Difference from Placebo, MADRS total score", "setting": "[3]; Period 2, 84 mg intranasal", "value": "−6.9"}, {"measurement": "statistical comparison with placebo, MADRS total score", "setting": "[3]; all three groups (28, 56, 84 mg), Period 1 and Period 2 combined, weighted combination test, one-sided 0.05", "value": "statistically superior to placebo"}, {"measurement": "Estimated Differences from placebo, MADRS total score", "setting": "[3]; dose cell blank (14 mg per text, dose not studied)", "value": "−1.98"}, {"measurement": "potency or affinity for the NMDA receptor", "setting": "[4]", "value": "higher potency or affinity"}]}]}
